Values quoted from earlier work in patent US4644054A, “Calcitonin analogs with amino acid substituents at position 31” (priority 1985, dated 1987).
Bridge positions count the residues as written; N and C are the ends. Ends that are not written are not given here.

Conditions: compared with natural human calcitonin

Substance | activity relative to natural human calcitonin
Salmon 1 calcitonin | thirty to forty times more active
human calcitonin analog with Serine^29 and Threonine^31substituents: human calcitonin analog with Serine at position 29 and Threonine at position 31 (Maier et al. 1974) (CGNLSTCMLGTYTQDFNKFHTFPQTAIGSGTP; disulfide 1-7; ends not checked; UniProt P01258 85-116, looked up, variant V29S A31T) | five times more active
